Assay results as given in patent US11083793B2, “Epidermal growth factor receptor (EGFR) targeted photosensitizers” (Health Research, Inc., priority 2016, dated 2021).

Legend:
UMUC3 tumors [1] = experiment: HPPH-PDT in combination with BCG, UMUC3 tumors; assay type: in vivo, mice; settings: HPPH 0.47 μmol/kg in combination with BCG (1-1.5×10^6 CFU SQ weekly×3); 135 J/cm^2, 75 mW/cm^2 at 6 h
Description: For details see the text.
One hour after the PDT treatment, BCG was injected (1-1.5×10^6 CFU), SQ weekly×3 doses, and the day 30 data summarized in FIG. 11, are very encouraging.

ABCG2 [2] = target: T1, ABCG2 (Homo sapiens, UniProt Q9UNQ0); experiment: ABCG2 substrate specificity: PS uptake with/without Gleevec, UMUC3; assay type: cell-based; settings: UMUC3 cells; PS 500 nM; Gleevec 5 μM; fluorescence
T1 construct: endogenous in cells; host or cells: UMUC3 bladder cancer cells
T1 sequence (Q9UNQ0 1-655): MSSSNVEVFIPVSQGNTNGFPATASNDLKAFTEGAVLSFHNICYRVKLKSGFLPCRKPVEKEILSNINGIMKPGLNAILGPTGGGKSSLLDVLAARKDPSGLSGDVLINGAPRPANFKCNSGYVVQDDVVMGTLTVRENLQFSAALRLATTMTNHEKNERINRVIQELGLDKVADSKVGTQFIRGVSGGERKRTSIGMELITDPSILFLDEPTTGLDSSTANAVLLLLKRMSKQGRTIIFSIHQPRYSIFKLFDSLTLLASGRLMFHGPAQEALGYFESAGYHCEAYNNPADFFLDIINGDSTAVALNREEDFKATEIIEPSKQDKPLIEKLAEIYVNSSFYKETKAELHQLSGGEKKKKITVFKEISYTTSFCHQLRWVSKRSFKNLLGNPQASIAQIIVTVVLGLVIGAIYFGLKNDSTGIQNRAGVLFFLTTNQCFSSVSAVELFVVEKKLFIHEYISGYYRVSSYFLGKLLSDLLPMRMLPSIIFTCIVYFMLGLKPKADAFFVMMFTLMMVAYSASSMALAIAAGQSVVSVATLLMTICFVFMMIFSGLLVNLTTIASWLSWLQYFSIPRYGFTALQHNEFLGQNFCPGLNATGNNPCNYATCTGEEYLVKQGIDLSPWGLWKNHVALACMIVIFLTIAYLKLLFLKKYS
From the text: (§1) T24 cells lack ABCG2 expression.
(§2) C1e. In contrast to PS 1 and 2, the PS- erlotinib conjugate 3 is not the substrate of ABCG2: The influence of PS as substrate for ABCG2 transport was observed by fluorescent microscopy. […] This information is very interesting as it could help to select an effective treatment option to cancer patients with and without expression of ABCG2 transporter.

UMUC3 tumors [3] = experiment: In vivo uptake in tumor, liver and skin (IVIS), UMUC3 tumors; design: species or system SCID mice; settings: UMUC3 tumor model; 0.47 μmol/kg
Description: C1i. PS with and without erlotinib show high tumor-uptake and significant difference in their pharmacokinetic profiles in UMUC3 and T24 tumors implanted in SCID mice: The SCID mice bearing either UMUC3 or T24 tumors (4-5 mm size) were injected with the PS 30, and the corresponding erlotinib conjugates 6, 34 & 39 with and without iodine functionality. Among the iodinated analogs, the iodobenzyl group was introduced either at the bottom half of 5 or top half of the molecule 39, and were converted into the corresponding radioactive (^124I-) analogs for PET imaging. The non-radioactive analogs were injected in tumored mice (3 mice/group) at a dose of 0.47 μmol/kg), and the mice were imaged at regular time intervals. The dose was selected on the basis of the therapeutic dose of HPPH. The uptake of tumor, liver and skin was measured by IVIS system (3 mice group), and interesting pharmacokinetic profiles of the PS were observed (FIG. 8).
C1j. […] Therefore, the tumors were exposed to light at their optimal uptake time points respectively.

ABCG2 [4] = experiment: ABCG2 substrate specificity: PS uptake with/without Gleevec, T24; assay type: cell-based; settings: T24 cells (lack ABCG2); PS 500 nM; Gleevec 5 μM; fluorescence
From the text: as §1, §2

ABCG2 [5] = target: T1, ABCG2; experiment: In vitro PDT efficacy with/without Gleevec (MTT), UMUC3; assay type: cell-based; settings: UMUC3 cells
From the text: as §2

HNSCC cells = experiment: 3-D co-culture of HN-85-1-3 and tumor stromal cells; assay type: cell-based; settings: 1600 nM, 24 h, then 48 h in medium
Description: The cells were washed free of PS and incubated for additional 48 h in medium. The fluorescence for CSFE stromal cells and PS fluorescence was recorded in an inverted fluorescent microscope.
The tumor specificity of the compounds was also confirmed in head & neck cancer using 3D culture system.

HN-85-1-3 cells = experiment: Growth inhibition of EGF-dependent HNSCC cell cultures; assay type: cell-based; settings: 3.2 μM, 72 h, RPMI+10% FBS; preliminary experiments
Description: HN-85-1-3 cells were cultured of 72 h in regular growth medium (RPMI+10% FBS) and containing 3.2 μM erlotinib or the indicated PSs. The cell density was photographically recorded at the beginning and end of the culture period. The cell-associated PSs were determined by fluorescence imaging.

SMILES	long-term cure compared to HPPH-PDT alone (UMUC3 tumors [1])	uptake of PS on addition of Gleevec (ABCG2 [2])	time of optimal/maximum tumor uptake post-injection (UMUC3 tumors [3])	uptake of PS on addition of Gleevec (ABCG2 [4])	substrate of ABCG2 (ABCG2 [5])	PDT efficacy with and without Gleevec (ABCG2 [5]; MTT assay)	retention by HNSCC cells in 3-D co-culture (HNSCC cells)	growth inhibition (HN-85-1-3 cells)
CCCCCCOC(C)c1c(C)c2cc3nc(c4c5[nH]c(cc6nc(cc1[nH]2)C(C)=C6CC)c(C)c5C(=O)C4)[C@@H](CCC(=O)O)[C@@H]3C (some centres unmarked) [HPPH, 2-(1-Hexyloxyethyl)-2-devinyl pyropheophorbide-a]	improved long-term cure	significantly increased	24 h	did not show any significant increase	substrates of ABCG2	enhancement of PDT efficacy	low retention	
C#Cc1cccc(Nc2ncnc3cc(OCCOC)c(OCCOC)cc23)c1 [erlotinib]								cytostatic action
